{"source": "patent EP0084516B1", "about": "“Anthelmintics” (CIBA-GEIGY AG, priority 1982, dated 1983)", "key": {"Fasciola hepatica [1]": {"test_system": "Fasciola hepatica", "test": "Tests on sheep artificially infected with Fasciola hepatica metacercariae (faecal egg counts and adult fluke counts at autopsy)", "assay_type": "in vivo, Schafe", "conditions": "for Adulte Egel bei Autopsie Mittelwert: group mean", "procedure": "Versuche an mit Fasciola hepatica infizierten Schafen\n36 Schafe wurden artifiziell mit Metacercarien von Fasciola hepatica infiziert. Zu diesem Zweck wurden die Metacercarien in einer wäßrigen 0,4%igen Suspension von Carboxymethylcellulose direkt in den Rumen der Versuchstiere injiziert. Die Tiere wurden dann für die Medikierung in etwa gleichgroße Gruppen und in drei Kontrollgruppen eingeteilt. Nach 4 Wochen wurden die Wirkstoffe in Dosen von 5 bis 10 mg/kg Körpergewicht je nach vorgesehener Kombination an die Versuchstiere verabreicht.\nWährend des Versuchs wurden die Schafe in Gehegeboxen unter Normalbedingungen gehalten.\nZur Prüfung der Wirkung der einzelnen Wirkstoffkombinationen wurden mit einer Standardtechnik 12 bis 15 Wochen nach Infizierung bzw. 8 bis 11 Wochen nach Medikierung die von den Leberegeln abgelegten Eier im Kot gezählt. Anschließend wurden die Versuchstiere getötet, soweit sie nicht zur Gruppe B und Kontrollgrupe B' gehörten (Tiere Nr. 26-36), und es wurde die Zahl der vorhandenen Leberegel festgestellt."}, "Fasciola hepatica [2]": {"test_system": "Fasciola hepatica", "test": "Tests on sheep artificially infected with Fasciola hepatica metacercariae (faecal egg counts and adult fluke counts at autopsy)", "assay_type": "in vivo, Schafe", "conditions": "B 4,6 mg/kg, individual sheep"}, "[3]": {"test_system": "6wöchige und jüngere Leberegel", "conditions": "comparable dose; from Austral. Vet. J. 55, 431-432, 1979; Brit. Vet. J. 138,371-382, 1982; cited from earlier work"}}, "note": "“And” between values parts separate entries of the source, which are not always exact repeats. Identical values can stand only once.", "data": [{"compound": "CSc1nc2cc(Cl)c(Oc3cccc(Cl)c3Cl)cc2[nH]1", "note": "[Substanz A, 5-Chlor-6-(2',3'-dichlorphenoxy)-2-methylthiobenzimidazol]", "values": [{"measurement": "Adulte Egel bei Autopsie Anzahl", "setting": "Fasciola hepatica [1]; A 5,0 mg/kg, given 4 weeks after infection, individual sheep", "value": "12 and 23 and 2 and 14 and 0"}, {"measurement": "EPG* 14. Woche", "setting": "Fasciola hepatica [1]; A 5,0 mg/kg, given 4 weeks after infection, liver fluke eggs per g faeces, week 14 after infection, individual sheep", "value": "65 pro gr Faeces and 60 pro gr Faeces and 0 pro gr Faeces (2×) and 10 pro gr Faeces"}, {"measurement": "EPG* 15. Woche", "setting": "Fasciola hepatica [1]; A 5,0 mg/kg, given 4 weeks after infection, week 15 after infection, individual sheep", "value": "125 pro gr Faeces and 60 pro gr Faeces and 5 pro gr Faeces and 0 pro gr Faeces (2×)"}, {"measurement": "Adulte Egel bei Autopsie Mittelwert", "setting": "Fasciola hepatica [1]; A 5,0 mg/kg, sheep 1-5", "value": "10,2"}, {"measurement": "Adulte Egel bei Autopsie % Reduktion", "setting": "Fasciola hepatica [1]; A 5,0 mg/kg, versus untreated control A'", "value": "89,4%"}]}, {"compound": "CCCSc1ccc2nc(NC(=O)OC)[nH]c2c1", "note": "[Substanz B, [5-(Propylthio)-1 H-benzimidazol-2-yl]-carbaminsäuremethylester]", "values": [{"measurement": "EPG* 12. Woche", "setting": "Fasciola hepatica [2]; given 4 weeks after infection, week 12 after infection", "value": "360 pro gr Faeces and 370 pro gr Faeces and 290 pro gr Faeces and 880 pro gr Faeces"}, {"measurement": "EPG* 13. Woche", "setting": "Fasciola hepatica [2]; week 13 after infection", "value": "1110 pro gr Faeces and 560 pro gr Faeces and 370 pro gr Faeces and 1280 pro gr Faeces"}, {"measurement": "Wirkung gegen 6wöchige und jüngere Leberegel", "setting": "[3]", "value": "unwirksam"}]}, {"compound": "COC(=O)Nc1nc2ccc(Sc3ccccc3)cc2[nH]1", "note": "[Substanz C, [5-(Phenylthio)-1 H-benzimidazol-2-yl]-carbaminsäuremethylester, reference compound]", "values": [{"measurement": "Adulte Egel bei Autopsie Anzahl", "setting": "Fasciola hepatica [1]; C 5,0 mg/kg, given 4 weeks after infection, Tabelle 2, individual sheep", "value": "54 and 77 and 82"}, {"measurement": "Adulte Egel bei Autopsie Mittelwert", "setting": "Fasciola hepatica [1]; C 5,0 mg/kg, Tabelle 2, sheep 20-22", "value": 71}, {"measurement": "Adulte Egel bei Autopsie % Reduktion", "setting": "Fasciola hepatica [1]; C 5,0 mg/kg, Tabelle 2, versus untreated control C'", "value": 0, "unit": "%"}]}]}
